# Measured values reported in patent US9828326B2, “Amooranin compounds and analogs thereof and related methods of use” (priority 2011, dated 2017).
# Marks after values point to notes of the source that are not given here.
# Key:
# breast cancer cells = details: cited from earlier work
# cyclin D1 = experiment: Immunohistochemistry of cyclin D1 in mammary tumors; assay type: in vivo, Sprague-Dawley rats; details: medium (1.2 mg/kg) or high (1.6 mg/kg) dose + DMBA, vs DMBA control
# Protocol: (§1) Serial sections of tumor tissue were used processed for immunohistochemical analysis. Cell proliferation was studied by immunohistochemical detection of proliferating cell nuclear antigen (PCNA) as a proliferation marker. The analysis of apoptotic cells in tumor sections were performed by using TdT-FragEL™ DNA fragmentation detection assay kit (EMD Biosciences, Inc., San Diego, Calif.). The protein expression of Bax (apoptosis inducer),Bcl-2 (apoptosis repressor), ER-a, ER-β, cyclin D1 and β-catenin were determined. The immunohistochemical slides were visualized under a light microscope (BX43, Olympus, Center Valley, Pa.) and at least 1,000 cells/animal were analyzed. Results were expressed as percentage of immunopositive cells.
# Bax [1] = experiment: Western blot of Bax in tumor tissue; assay type: in vivo, Sprague-Dawley rats; details: all doses (0.8, 1.2, 1.6 mg/kg) + DMBA
# Protocol: (§2) Total proteins were extracted from tumor tissues with lysis buffer (containing 20 mM HEPES, 350 mM NaCl, […], 1 mM MgCh, 20% glycerol, and 1% NP-40), boiled and separated by 4-20% gradient sodium dodecyl sulfate-polyacrylamide gel electrophoresis. The proteins were transferred to polyvinylidene fluoride membranes (Santa Cruz Biotechnology Inc., Santa Cruz, Calif.), and reacted with primary mouse monoclonal antibodies to Bax, Bcl-2, Bel-XL and β-Actin (dilution 1:200) and subsequently with anti-mouse secondary antibodies (dilution 1:1,000) conjugated to horseradish peroxidase. The immunoreactions were detected by an enhanced chemiluminescence detection kit (Them10 Scientific, Rockford, Ill.) and relative intensities of bands on blots were quantitated by autoluminography using a Kodak digital imaging system. Normalization of Western blot was ensured by β-Actin.
# [2] = system: proliferating cell nuclear antigen (PCNA); experiment: Immunohistochemical detection of PCNA in tumor sections (cell proliferation); assay type: in vivo, Sprague-Dawley rats
# Protocol: as §1
# [3] = parameters: species or system Sprague-Dawley rats; details: rat, in vivo, 1.6 mg/kg
# Protocol: The possible toxicity of high dose (1.6 mg/kg) of AMR-Me was studied by investigating hepatic and renal histopathological characteristics using H&E staining.
# Bcl-2 [4] = experiment: Immunohistochemistry of Bcl-2 in mammary tumors; assay type: in vivo, Sprague-Dawley rats
# Protocol: as §1
# ER-α = experiment: Immunohistochemistry of ER-α in mammary tumors; assay type: in vivo, Sprague-Dawley rats; details: low (0.8 mg/kg) or medium (1.2 mg/kg) dose + DMBA
# Protocol: as §1
# CASP3 = experiment: RT-PCR of tumor samples, CASP3; assay type: in vivo, Sprague-Dawley rats; details: tumors of AMR-Me + DMBA rats
# Protocol: (§3) Total RNA from 20 mg of tumor sample was extracted using Quick RNA® mini Prep kit following the manufacturer's instructions. The expression levels of apoptotic and anti-apoptotic genes were monitored by reverse transcription-polymerase chain reaction (RT-PCR) using the cDNA verso kit with a temperature scale of 42° C. for 30 min for reverse transcription, and 32 cycles of 94° C. for 30 s, 56° C. for 30 s, and 72° C. for 30 s. The RT-PCR was carried out using the primers: […]
# (§4) The PCR products were analyzed on 1% agarose gel and visualized by ethidium bromide staining.
# Bax [5] = experiment: Immunohistochemistry of Bax in mammary tumors; assay type: in vivo, Sprague-Dawley rats
# Protocol: as §1
# [6] = system: breast cancer MCF-7 cells; details: in vitro; cited from earlier work
# [7] = General observations: body weight, food and water intake; assay type: in vivo, Sprague-Dawley rats
# Protocol: The DMBA was dissolved in corn oil.
# [8] = system: DMBA-induced mammary tumorigenesis; experiment: Chemoprevention of DMBA-induced mammary tumorigenesis; details: for No. of rats with tumors/total rats / Total tumor burden / Tumor Incidence / Average tumor weight: + DMBA; for Average tumor weight: mean±SEM
# Excerpt: Following an acclimatization period of one week, rats (−43 days of age) were randomly divided into six groups of 7-11 animals in each. […] Two groups (groups A and B) were maintained on the basal diet without any further treatment, whereas the remaining four groups (groups C, D, E and F) were fed with AMR-Me through oral gavage three times a week (Monday-Wednesday-Friday). AMR-Me was mixed in polyethylene glycol (Sigma-Aldrich, St. Louis, Mo.) and administered by gently securing the animal by holding the skin back of its head and delivering the drug slowly via an animal feeding needle (Popper and Sons, Inc., New Hyde Park, N.Y.) attached to a I-ml syringe (Becton Dickinson, Franklin Lakes, N.J.). This technique ensured the accurate oral dosing of the test material. Three doses of AMR-Me were used: 0.8 mg/kg (for group C), 1.2 mg/kg (for group D) and 1.6 mg/kg (for groups E and F). These three doses (low, medium and high) represent 40, 60 and 80% of calculated maximum tolerated dose (MTD) in rats, respectively. The rat MTD was calculated based on the MTD in mice (3 mg/kg/day).
# Following two week of aforementioned treatment regimen, at −57 days of age, mammary carcinogenesis was initiated in all animals belonging to groups B, C, D and E by a single administration of the mammary carcinogen, DMBA at 50 mg/kg body weight by gavage. The DMBA was dissolved in corn oil. This dose of DMBA was chosen so that substantial tumor incidence could be produced but not so high as to overwhelm the chemopreventive action of AMR-Me. Oral treatment of rats with AMR-Me in groups C, D, E and F were continued for 16 weeks following the DMBA administration (i.e., a total period of 18 weeks). Food and water intake as well as behavioral patterns were monitored daily and body weights of animals were recorded every alternate week.
# Animals were palpated along the milk line twice a week starting 4 weeks following DMBA treatment to detect the presence of mammary tumors. All animals were sacrificed at 16 weeks post-DMBA treatment (i.e., 18 weeks following the start of the experiment).
# Following an overnight fast, animals from each group were anesthetized between 09:00 and 11:00 h by intramuscular injection of 40-87 mg/kg ketamine and 5-13 mg/kg xylazine. The skin was dissected out to expose mammary tumors. The tumors (approximated spheres) were separated from mammary gland parenchyma, carefully excised, rinsed with phosphate-buffered saline (pH 7.4) to flush out any blood, blotted dry on a paper towel, weighed, and photographed. Each tumor was measured in two perpendicular directions with a vernier caliper to the nearest mm to obtain an average diameter. The representative tumor tissue as well liver and kidney were harvested and either immediately flash frozen in liquid nitrogen for molecular work or fixed in 4% paraformaldehyde. Later, serial tumor sections (−15-μm thick) were prepared using a microtome. These sections were used for histopathological assessment by hematoxylin and eosin (H&E) staining.
# BAD = experiment: RT-PCR of tumor samples, BAD; assay type: in vivo, Sprague-Dawley rats; details: tumors of AMR-Me + DMBA rats
# Protocol: as §3, §4
# Bcl-2 [9] = experiment: Western blot of Bcl-2 in tumor tissue; assay type: in vivo, Sprague-Dawley rats
# Protocol: as §2
# [10] = system: apoptotic cells in tumor sections; experiment: TdT-FragEL DNA fragmentation detection assay in tumor sections (apoptosis); assay type: in vivo, Sprague-Dawley rats
# Protocol: as §1
# β-catenin = experiment: Immunohistochemistry of β-catenin in mammary tumors; assay type: in vivo, Sprague-Dawley rats; details: 0.8 mg/kg or 1.2 mg/kg + DMBA
# Protocol: as §1
# [11] = mice; cited from earlier work
# CASP7 = experiment: RT-PCR of tumor samples, CASP7; assay type: in vivo, Sprague-Dawley rats; details: tumors of AMR-Me + DMBA rats
# Protocol: as §3, §4
# Bax [12] = experiment: RT-PCR of tumor samples, BAX; assay type: in vivo, Sprague-Dawley rats; details: tumors of AMR-Me + DMBA rats
# Protocol: as §3, §4
# PARP = experiment: RT-PCR of tumor samples, PARP; assay type: in vivo, Sprague-Dawley rats; details: tumors of AMR-Me + DMBA rats
# Protocol: as §3, §4
# BCL2 = experiment: RT-PCR of tumor samples, BCL2; assay type: in vivo, Sprague-Dawley rats; details: tumors of AMR-Me + DMBA rats
# Protocol: as §3, §4
# [13] = medium (1.2 mg/kg) or high (1.6 mg/kg) dose + DMBA
# [14] = group C: 0.8 mg/kg oral three times a week, 18 weeks
# [15] = group D: 1.2 mg/kg oral three times a week, 18 weeks
# [16] = group E: 1.6 mg/kg oral three times a week, 18 weeks
smiles,measurement,setting,value
"CC1(C)CC[C@]2(C(=O)O)CC[C@]3(C)C(=CC[C@@H]4[C@@]5(CO)CCC(=O)C(C)(C)[C@@H]5CC[C@]43C)[C@@H]2C1 [AMR, 25-Hydroxy-3-oxoolean-12-en-28-oic Acid]",anti-neoplastic activity,breast cancer cells; plant-derived compound,relatively weak
"COC(=O)[C@]12CCC(C)(C)C[C@H]1C1=CC[C@@H]3[C@@]4(CO)CCC(=O)C(C)(C)[C@@H]4CC[C@@]3(C)[C@]1(C)CC2 [AMR-Me, 25-hydroxy-3-oxoolean-12-en-28-oic Acid Methyl Ester]",percentage of cyclin D1-positive cells,cyclin D1,significant (P<0.05 or 0.001) decrease
same,Bax expression (Western blot),Bax [1],elevated the Bax expression
same,proliferation of tumor cells (PCNA-positive cells),[2]; low dose 0.8 mg/kg + DMBA,marginal reduction in the proliferation of tumor cells
same,PCNA labeling index (LI),"[2]; medium (1.2 mg/kg) or high (1.6 mg/kg) dose + DMBA, vs DMBA control",statistically significant (P<0.001) decrease
same,hepatotoxicity (hepatic histopathology),[3],no hepatotoxicity was observed
same,nephrotoxicity (renal histopathology),[3],did not exhibit any nephrotoxicity
same,expression of cytoplasmic Bcl-2,Bcl-2 [4]; low dose 0.8 mg/kg + DMBA,not altered
same,Bcl-2-positive cells,Bcl-2 [4]; [13],significant (P<0.005 or 0.001) reduction
same,intra-tumor expression of ER-α,ER-α,reduced
same,ratio of ER-α/ER-β,ER-α,concomitant drop
same,CASP3 mRNA level (RT-PCR),CASP3,up-regulation
same,frequency of Bax-immunopositive cells,Bax [5]; low dose 0.8 mg/kg + DMBA,extremely low
same,Bax/Bcl-2 ratio,Bax [5]; [13],elevated the Bax/Bcl-2 ratio in a dose-responsive manner
same,Bax-positive cells,"Bax [5]; medium (1.2 mg/kg) or high (1.6 mg/kg) dose + DMBA, vs DMBA alone",significantly (P<0.001) increased
same,"potency against MCF-7 cells, concentrations",[6],down to the nanomolar range
same,body weights among rat groups,"[7]; 0.8, 1.2 or 1.6 mg/kg, any time point",No significant difference
same,food and water intakes,"[7]; normal animals, 1.6 mg/kg body weight, 18 weeks",unaltered
same,No. of rats with tumors/total rats,[8]; [14],5/8
same,Total tumor burden,[8]; [14],57.5 g
same,Tumor Incidence,[8]; [14],62%
same,Average tumor weight,[8]; [14],11.5 ± 4.9 ^ g
same,No. of rats with tumors/total rats,[8]; [15],2/7
same,Total tumor burden,[8]; [15],9.6 g
same,Tumor Incidence,[8]; [15],28^a %
same,Average tumor weight,[8]; [15],3.2 ± 1.5^b g
same,No. of rats with tumors/total rats,[8]; [16],2/7
same,Total tumor burden,[8]; [16],0.8 g
same,Tumor Incidence,[8]; [16],28^a %
same,Average tumor weight,[8]; [16],0.38 ± 0.03^b g
same,visible mammary tumors in AMR-Me control,"[8]; group F: 1.6 mg/kg without DMBA, 18 weeks",no visible mammary tumors
same,improvement of cellular architecture in tumor tissue (H&E),[8]; high dose 1.6 mg/kg + DMBA,substantial improvement of cellular architecture
same,size of tumors,[8]; high dose 1.6 mg/kg + DMBA,striking reduction in size
same,size of tumors,[8]; low dose 0.8 mg/kg + DMBA,reduced the size of tumors
same,tumor histopathological features (H&E),[8]; low dose 0.8 mg/kg + DMBA,did not modify tumor histopathological features
same,improvement of cellular architecture in tumor tissue (H&E),[8]; medium dose 1.2 mg/kg + DMBA,moderate
same,size of tumors,[8]; medium dose 1.2 mg/kg + DMBA,further decrease in the size of tumor
same,BAD mRNA level (RT-PCR),BAD,up-regulation
same,Bcl-2 expression (Western blot),Bcl-2 [9]; high dose 1.6 mg/kg + DMBA,complete abrogation
same,Bcl-2 expression (Western blot),Bcl-2 [9]; low or medium dose + DMBA,did not modify Bel-2 expression
same,apoptotic index (AI),"[10]; low dose 0.8 mg/kg + DMBA, vs DMBA control",no noticeable difference
same,apoptotic index (AI),"[10]; medium (1.2 mg/kg) or high (1.6 mg/kg) dose + DMBA, vs DMBA",significant increase (P<0.001)
same,cytosolic β-catenin expression,β-catenin,significant (P<0.001) decrease
same,nuclear β-catenin expression,β-catenin,significant (P<0.001) decrease
same,maximum tolerated dose (MTD),[11],3 mg/kg/day
same,CASP7 mRNA level (RT-PCR),CASP7,up-regulation
same,BAX mRNA level (RT-PCR),Bax [12],up-regulation
same,PARP mRNA level (RT-PCR),PARP,up-regulation
same,BCL2 mRNA level (RT-PCR),BCL2,down-regulation
same,"inhibition of proliferation of several breast cancer cells, potency",breast cancer cells; relative to the parent compound,greater potency than the parent compound AMR
